Publication PMC6418145 (Scientific Reports, 2019)
pEC50, pKi: −log10 of the molar value.

Legend:
AChE = AChE (Homo sapiens, UniProt P22303); details: 10 μM compound, not shown
PDE4D2 = PDE4D2 (Homo sapiens, UniProt Q08499); experiment: Off-target enzyme assay; type: biochemical; details: 10 μM compound, not shown
D2 dopamine receptor = target: T1, D2 dopamine receptor (Homo sapiens, UniProt P14416); experiment: Off-target radioligand binding; details: 10 μM compound
T1 construct: expressed in transfected cells; host or cells: HEK-293 or CHO

[1] = Pharmacokinetics in plasma, CSF and cortical brain tissue after i.p. injection; details: mice; for mean concentration in brain: cortical tissue
Method: Blood (approximately 100 µl) was collected from the vena facialis in anaesthetised animals, followed by CSF sampling (approximately 10 µl) from the cisterna magna under pentobarbital anaesthesia (1:25 in saline, 10 ml/kg, i.p., Narcoren, Boehringer Ingelheim, Germany). Subsequently, the brain was removed and its anterior third (including the medial prefrontal and anterior cingulate cortices) dissected and transferred into Precellys tubes cooled in liquid nitrogen. For plasma extraction, blood was transferred to EDTA coated tubes and centrifuged for 10 min at 10,000 rpm at 4 °C. Maximal plasma concentration (Cmax), time taken to reach maximal plasma concentration (Tmax) and mean residence time were assessed using liquid chromatography–mass spectrometry analysis executed on the HP1200 (Agilent, CA, USA) coupled to the API 6500 (AB Sciex, Germany) using BI00001052 (Boehringer Ingelheim) as internal standard. In short, 5 µl of plasma or CSF sample were mixed with 10 nl internal standard. 70 µl acetonitrile (ACN)/methanol (1:1) was added, kept at −20 °C for 15 min and centrifuged for 4 min at 4000 rpm at 4 °C. 30 µl of the supernatant was mixed with 170 µl 0.1% formic acid. Brain homogenization was executed by Precellys Evolution (Bertin) after adding ACN/methanol (1:1)/aq.dest. (3:1) to each brain sample with a volume corresponding to 4 parts of the brain weight, followed by centrifugation for 1 min at 4000 rpm at 4 °C. 5 µl of the supernatant was mixed with 10 nl of internal standard.

C57BL/6 J mice = experiment: 5-choice serial-reaction-time task (5-CSRTT), unspecific behavioural effects; type: in vivo
Method: Training was performed in 16 standard mouse Bussey-Saksida touchscreen chambers (model #80614, Campden Instruments Ltd., UK), previously described in detail. In short, each trapezoidal operant chamber was placed in a sound- and light- attenuating box individually equipped with a house light, a reward magazine with light, a liquid reward dispenser, a sound generator, a perforated stainless steel floor, and a touchscreen placed at the wide end of the chamber and covered permanently by a black acrylic glass 5-hole mask. The reward magazine, located opposite the touchscreen, was connected to a liquid dispenser delivering strawberry milk (Yazoo®). Infrared break-beam sensors located inside and on the front of the food magazine as well as on the touch-screen walls allowed the detection of reward delivery and the animal’s locomotor activity, respectively. Four individual chambers were connected to one computer for controlling the task flow using the graphical task design software ABET II Touch (model #89505, Campden Instruments Ltd., UK) and the WhiskerServer software (Cambridge University Technical Services Ltd., UK)[27].
Mice were habituated to the chambers for three consecutive 20-min sessions during which the house light and magazine light were permanently on. At the start of each session, 30 µl strawberry milk was delivered. Every 15 s after head entry into the magazine, an additional 30 µl strawberry milk was delivered. Head entry turned the magazine light off.
The 5-CSRTT training protocol, originally designed for rats[28], was similar as that previously described for mice[29]–[31]. The training comprised six stages with 30-min sessions initiated by the illumination of the house and magazine lights and delivery of 20 µl strawberry milk. Collection of the reward switched the magazine light off and started the first trial.
In the first stage, the middle window was permanently illuminated, which was turned off when touched, followed by reward delivery (20 µl) with illumination of the magazine light. Head entry switched off the magazine light. Mice performing 30 trials in a session continued to the next stage. Training sessions in stages 2–6 comprised a maximum of 120 trials. Collection of the reward initiated the inter-trial interval (ITI) followed by the illumination of one pseudo-randomly selected aperture for a fixed stimulus duration (SD). Any touch to the screen during the ITI was classified as a premature response which was not counted as a trial and terminated the current trial. Following stimulus detection, a nose poke to the corresponding aperture within a fixed time interval (limited hold; LH) was required for reward delivery. Premature responses made during the ITI, incorrect responses, and the omission of a response within the LH led to a timeout (TO, house light switched off for 4 s) instead of delivery of reward. Correct, incorrect and omitted responses defined the total number of trials. […] The criteria to pass the last stage and reach baseline performance were to complete >30 correct trials, with ≥80% accuracy and ≤30% omissions. Percentage accuracy was defined as the number of correct trials divided by the sum of correct and incorrect trials. Percentage omissions were calculated in terms of the number of completed trials. Premature responding was calculated as a percentage of completed trials. Perseveration was calculated as the number of additional responses made in the same aperture following a correct response. Additionally, the correct-response latency (time from stimulus presentation to correct response) and reward latency (time from correct response to reward collection) were measured across all trials.
Either one or up to three days before, as well as one day after the task challenge, mice were trained at baseline conditions to check for any unexpected changes in task performance (e.g. by long lasting drug- or challenge-induced effects). […]

M3 muscarinic receptor = target: T2, M3 muscarinic receptor (Homo sapiens, UniProt P20309); experiment: Off-target radioligand binding; details: 10 μM compound
T2 construct: expressed in transfected cells; host or cells: HEK-293 or CHO

M1 muscarinic receptor = target: T3, M1 muscarinic receptor (Homo sapiens, UniProt P11229); experiment: Off-target radioligand binding; details: 10 μM compound
T3 construct: expressed in transfected cells; host or cells: HEK-293 or CHO

[2] = tested on: 5-HT1B serotonin receptor; experiment: Off-target radioligand binding; parameters: species or system human; details: 10 μM compound
α2A adrenoreceptor = target: T4, α2A adrenoreceptor (Homo sapiens, UniProt P08913); experiment: Off-target radioligand binding; details: 10 μM compound
T4 construct: expressed in transfected cells; host or cells: HEK-293 or CHO

hM4Di = target: T5, hM4Di (Homo sapiens, UniProt P08173, A203G/Y113C); experiment: FLIPR Ca2+ oscillation assay in primary rat neuronal cultures transduced with hM4Di; type: cell-based
T5 construct: expressed in transfected cells; host or cells: primary cortical neurons of embryonic (E18) Sprague-Dawley rats, AAV-transduced
T5 sequence (P08173 1-479 Y113C/A203G): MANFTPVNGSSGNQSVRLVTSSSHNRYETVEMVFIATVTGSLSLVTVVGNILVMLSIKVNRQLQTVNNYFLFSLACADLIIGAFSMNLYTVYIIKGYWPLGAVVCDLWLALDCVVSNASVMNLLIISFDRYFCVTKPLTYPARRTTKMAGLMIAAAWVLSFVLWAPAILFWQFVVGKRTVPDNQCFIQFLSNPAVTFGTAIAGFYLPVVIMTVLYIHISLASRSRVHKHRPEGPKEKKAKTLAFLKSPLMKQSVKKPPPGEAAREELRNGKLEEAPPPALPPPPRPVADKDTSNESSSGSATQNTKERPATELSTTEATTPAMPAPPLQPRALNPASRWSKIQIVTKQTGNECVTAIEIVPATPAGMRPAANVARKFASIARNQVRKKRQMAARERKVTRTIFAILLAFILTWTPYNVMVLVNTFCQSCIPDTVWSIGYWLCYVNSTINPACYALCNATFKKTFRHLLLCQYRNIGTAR
Method: Briefly, cortices were dissected from embryonic brains, meninges were removed, and cortices transferred into ice-cold dissociation buffer (2 mM kynurenic acid, 10 mM HEPES, 20 mM MgCl2 (Fluka, Germany) and 33.4 mM Glucose in Hank’s Balanced Salt Solution (HBSS), pH 7.4 (Gibco, Thermo Fischer Scientific, Massachusetts, USA). Cortices were then dissociated in 20 units/ml papain solution (5.5 mM L- Cysteine hydrochloride, 1.1 mM ethylenediamine tetra-acetic acid [EDTA], 0.067 mM 2-Mercaptoethanol in Minimum Essential Medium [MEM]) for 15 min at 37 °C. Cortices were washed twice by adding 20 ml plating medium (1:50 foetal calve serum, 1:100 penicillin/streptomycin and 1:100 GlutaMax in MEM) followed by cell filtration using a 70 µm cell strainer (Corning, model #352350, Merck, Germany) to obtain a single-cell suspension. Dissociated cells were re-suspended in serum-free Neurobasal medium with Glutamax and B27 supplement (Gibco) and plated on PDL-coated 96 MTPs (Corning #356640). Virus (ssAAV-1/2-hSyn1-hM4D[Gi]_mCherry-WPRE-hGHp[A]) transduction was performed immediately after plating. Cells were maintained at 37 °C (5% CO2 and 10% O2) in a humidified incubator. A half feed medium change was done on DIV8. Final assay conditions used for evaluating activity of compounds were 0.95 × 10^5 cells/cm^2, transduced with 10.000 multiplicity of infection and measured on DIV9.
Medium was removed and cells were incubated in assay buffer (HBSS, Gibco, 10 mM HEPES, pH 7.4) containing 4 µM Fluo-4AM (Thermo Fischer Scientific) and 0.1% Pluronic F-127 (Thermo Fischer Scientific #P3000MP) for 1 h at room temperature in the dark. Loading buffer was then replaced with assay buffer. After 10 min, assay plates were measured in the FLIPR tetra (Molecular Devices, California, USA) using green fluorescence filter settings (excitation 470–495 nm, emission 515–575 nm). Fluorescence signals were recorded at 1 s intervals (0.4 s exposure time). Compound addition was automated in a single addition protocol. Tested compounds (concentrations:0.3 nM–1 µM; retigabine at 30 µM) were added after recording a baseline response for 5 min followed by another 5 min for recording compound effects on Ca^2+ oscillations. Each compound dose was repeated on three individual plates in duplicates.
Time-series raw fluorescence traces recorded from the FLIPR assay were analysed by detecting Ca^2+ peaks based on a fixed amplitude threshold[19]. The change in oscillation frequency was determined by counting the number of peaks in a defined time interval (5 min) before and after addition of the tested compound and calculating the Ca^2+ oscillations frequency from their number. […] For visualisation, all data were transferred to GraphPad Prism 7 (Graphpad Software, Inc., CA, USA).

COX1 = COX1 (Homo sapiens, UniProt P23219); experiment: Off-target enzyme assay; type: biochemical; details: 10 μM compound, not shown
[3] = target: T6, 5-HT2B serotonin receptor (Homo sapiens, UniProt P41595); experiment: Off-target radioligand binding
T6 construct: expressed in transfected cells; host or cells: HEK-293 or CHO

[4] = target: human M4 muscarinic receptor (Homo sapiens, UniProt P08173); experiment: Potency at parent receptor of hM4Di; type: cell-based; details: data not shown
α1A adrenoreceptor = target: T7, α1A adrenoreceptor (Homo sapiens, UniProt P35348); experiment: Off-target radioligand binding; details: 10 μM compound
T7 construct: expressed in transfected cells; host or cells: HEK-293 or CHO

[5] = 15 min after i.p. 3.5 mg/kg CNO
[6] = 30 min after i.p. 3.5 mg/kg CNO
[7] = 60 min after i.p. 3.5 mg/kg CNO

T6 sequence (P41595 whole entry): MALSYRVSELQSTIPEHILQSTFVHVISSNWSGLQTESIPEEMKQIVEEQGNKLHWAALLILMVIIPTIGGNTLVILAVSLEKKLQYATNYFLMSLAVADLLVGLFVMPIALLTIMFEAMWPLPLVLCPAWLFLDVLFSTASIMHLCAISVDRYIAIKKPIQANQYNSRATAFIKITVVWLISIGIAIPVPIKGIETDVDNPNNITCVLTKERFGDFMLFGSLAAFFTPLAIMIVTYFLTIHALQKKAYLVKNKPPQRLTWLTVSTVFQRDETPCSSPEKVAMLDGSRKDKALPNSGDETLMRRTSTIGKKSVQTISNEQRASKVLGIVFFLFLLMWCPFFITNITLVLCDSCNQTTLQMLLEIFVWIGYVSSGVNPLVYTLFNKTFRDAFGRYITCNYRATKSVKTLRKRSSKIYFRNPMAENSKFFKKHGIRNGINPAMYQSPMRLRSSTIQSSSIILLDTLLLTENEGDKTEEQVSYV
COX1, sequence (P23219 24-599): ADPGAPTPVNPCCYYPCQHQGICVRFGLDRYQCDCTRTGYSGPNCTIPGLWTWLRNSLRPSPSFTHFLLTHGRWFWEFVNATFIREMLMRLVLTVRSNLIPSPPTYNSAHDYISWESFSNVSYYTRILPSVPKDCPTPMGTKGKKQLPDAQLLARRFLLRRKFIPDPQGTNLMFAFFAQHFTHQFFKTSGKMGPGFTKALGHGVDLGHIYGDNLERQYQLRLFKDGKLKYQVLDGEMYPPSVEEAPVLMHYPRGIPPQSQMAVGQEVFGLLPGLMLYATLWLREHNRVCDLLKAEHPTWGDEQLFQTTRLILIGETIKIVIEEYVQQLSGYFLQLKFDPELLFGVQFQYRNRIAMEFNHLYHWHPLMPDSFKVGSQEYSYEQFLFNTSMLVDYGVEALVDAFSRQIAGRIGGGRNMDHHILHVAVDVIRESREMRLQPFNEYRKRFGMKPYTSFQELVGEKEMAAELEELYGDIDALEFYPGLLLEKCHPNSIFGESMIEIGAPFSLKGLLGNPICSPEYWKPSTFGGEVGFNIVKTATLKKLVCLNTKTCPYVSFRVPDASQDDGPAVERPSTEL
AChE, sequence (P22303 32-614): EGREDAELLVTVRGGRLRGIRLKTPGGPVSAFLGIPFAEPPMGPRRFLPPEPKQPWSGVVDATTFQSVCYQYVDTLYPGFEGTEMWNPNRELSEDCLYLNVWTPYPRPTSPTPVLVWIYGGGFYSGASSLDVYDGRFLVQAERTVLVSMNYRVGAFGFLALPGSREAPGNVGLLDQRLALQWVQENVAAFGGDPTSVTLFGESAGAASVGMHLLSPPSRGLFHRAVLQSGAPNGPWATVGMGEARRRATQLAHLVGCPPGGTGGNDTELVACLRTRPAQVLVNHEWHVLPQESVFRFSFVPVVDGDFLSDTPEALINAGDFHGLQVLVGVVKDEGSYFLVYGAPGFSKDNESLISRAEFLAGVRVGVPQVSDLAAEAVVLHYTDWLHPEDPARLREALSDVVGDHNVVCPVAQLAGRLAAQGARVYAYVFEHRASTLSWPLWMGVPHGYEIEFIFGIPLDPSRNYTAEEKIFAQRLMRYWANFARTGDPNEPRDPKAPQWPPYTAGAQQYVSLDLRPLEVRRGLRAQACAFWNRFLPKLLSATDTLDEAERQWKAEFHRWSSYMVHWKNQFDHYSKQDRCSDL
T2 sequence (P20309 whole entry): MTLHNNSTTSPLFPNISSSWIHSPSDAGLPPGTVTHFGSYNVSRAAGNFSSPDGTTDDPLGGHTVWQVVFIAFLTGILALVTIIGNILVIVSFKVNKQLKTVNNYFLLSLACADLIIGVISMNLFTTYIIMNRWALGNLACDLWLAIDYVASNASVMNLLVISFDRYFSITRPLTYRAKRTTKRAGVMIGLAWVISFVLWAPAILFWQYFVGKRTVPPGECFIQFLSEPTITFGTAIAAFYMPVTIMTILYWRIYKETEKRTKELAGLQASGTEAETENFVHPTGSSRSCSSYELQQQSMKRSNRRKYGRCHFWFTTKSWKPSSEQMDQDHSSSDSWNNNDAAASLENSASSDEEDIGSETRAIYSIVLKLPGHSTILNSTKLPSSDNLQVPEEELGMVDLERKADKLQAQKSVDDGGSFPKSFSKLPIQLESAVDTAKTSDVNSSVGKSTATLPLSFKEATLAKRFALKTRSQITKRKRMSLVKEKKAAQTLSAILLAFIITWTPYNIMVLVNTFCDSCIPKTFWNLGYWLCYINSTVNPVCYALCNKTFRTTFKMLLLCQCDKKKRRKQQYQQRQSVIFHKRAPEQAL
PDE4D2, sequence (Q08499 303-809): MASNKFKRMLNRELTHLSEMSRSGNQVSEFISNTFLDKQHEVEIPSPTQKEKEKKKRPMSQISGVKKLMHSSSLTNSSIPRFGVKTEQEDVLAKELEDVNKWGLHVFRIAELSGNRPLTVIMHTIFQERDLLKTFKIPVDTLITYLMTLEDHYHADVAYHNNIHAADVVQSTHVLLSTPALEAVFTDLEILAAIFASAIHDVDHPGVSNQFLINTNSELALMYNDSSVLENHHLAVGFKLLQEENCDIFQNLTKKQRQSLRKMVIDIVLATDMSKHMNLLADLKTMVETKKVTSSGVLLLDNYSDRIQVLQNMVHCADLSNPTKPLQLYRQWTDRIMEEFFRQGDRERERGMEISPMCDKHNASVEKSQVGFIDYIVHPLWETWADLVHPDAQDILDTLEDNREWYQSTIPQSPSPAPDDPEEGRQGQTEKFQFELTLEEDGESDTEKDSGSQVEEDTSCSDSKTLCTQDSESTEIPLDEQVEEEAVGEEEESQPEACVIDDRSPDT
T7 sequence (P35348 whole entry): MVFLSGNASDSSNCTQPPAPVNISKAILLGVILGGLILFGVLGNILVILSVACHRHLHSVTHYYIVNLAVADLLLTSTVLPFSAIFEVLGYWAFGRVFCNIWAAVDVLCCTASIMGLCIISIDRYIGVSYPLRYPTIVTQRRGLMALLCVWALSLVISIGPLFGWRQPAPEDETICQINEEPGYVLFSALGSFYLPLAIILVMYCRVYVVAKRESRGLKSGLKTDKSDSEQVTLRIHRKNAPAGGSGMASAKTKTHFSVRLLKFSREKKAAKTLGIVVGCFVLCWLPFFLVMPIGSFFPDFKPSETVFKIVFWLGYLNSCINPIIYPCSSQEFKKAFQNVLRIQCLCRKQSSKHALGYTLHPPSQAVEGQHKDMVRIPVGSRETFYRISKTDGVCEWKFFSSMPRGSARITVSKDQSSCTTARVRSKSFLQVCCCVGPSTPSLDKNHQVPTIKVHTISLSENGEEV
human M4 muscarinic receptor, sequence (P08173 whole entry): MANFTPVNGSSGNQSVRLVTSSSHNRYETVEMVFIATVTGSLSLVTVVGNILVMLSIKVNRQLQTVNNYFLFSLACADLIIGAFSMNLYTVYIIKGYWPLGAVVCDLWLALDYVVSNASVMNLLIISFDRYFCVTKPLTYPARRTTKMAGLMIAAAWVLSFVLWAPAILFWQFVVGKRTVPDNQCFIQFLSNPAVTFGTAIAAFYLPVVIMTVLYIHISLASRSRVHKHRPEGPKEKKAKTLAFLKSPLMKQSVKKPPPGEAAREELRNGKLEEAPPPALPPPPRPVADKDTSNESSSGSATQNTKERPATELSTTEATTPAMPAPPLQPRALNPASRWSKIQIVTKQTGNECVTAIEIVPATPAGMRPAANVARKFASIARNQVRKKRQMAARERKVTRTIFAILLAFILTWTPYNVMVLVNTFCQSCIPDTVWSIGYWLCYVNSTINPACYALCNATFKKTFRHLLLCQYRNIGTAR
T1 sequence (P14416 1-414 isoform P14416-2): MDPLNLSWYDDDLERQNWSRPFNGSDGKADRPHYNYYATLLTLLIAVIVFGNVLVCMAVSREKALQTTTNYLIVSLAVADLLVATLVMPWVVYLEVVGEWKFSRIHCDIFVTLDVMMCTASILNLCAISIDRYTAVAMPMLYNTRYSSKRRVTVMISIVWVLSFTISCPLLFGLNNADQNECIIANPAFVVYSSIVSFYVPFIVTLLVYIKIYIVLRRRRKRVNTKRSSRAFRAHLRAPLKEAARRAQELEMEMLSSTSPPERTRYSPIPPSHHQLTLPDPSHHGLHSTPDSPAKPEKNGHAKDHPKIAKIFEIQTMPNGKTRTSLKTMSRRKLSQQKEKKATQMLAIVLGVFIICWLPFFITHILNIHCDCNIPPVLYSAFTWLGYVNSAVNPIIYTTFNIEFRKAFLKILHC
T4 sequence (P08913 whole entry): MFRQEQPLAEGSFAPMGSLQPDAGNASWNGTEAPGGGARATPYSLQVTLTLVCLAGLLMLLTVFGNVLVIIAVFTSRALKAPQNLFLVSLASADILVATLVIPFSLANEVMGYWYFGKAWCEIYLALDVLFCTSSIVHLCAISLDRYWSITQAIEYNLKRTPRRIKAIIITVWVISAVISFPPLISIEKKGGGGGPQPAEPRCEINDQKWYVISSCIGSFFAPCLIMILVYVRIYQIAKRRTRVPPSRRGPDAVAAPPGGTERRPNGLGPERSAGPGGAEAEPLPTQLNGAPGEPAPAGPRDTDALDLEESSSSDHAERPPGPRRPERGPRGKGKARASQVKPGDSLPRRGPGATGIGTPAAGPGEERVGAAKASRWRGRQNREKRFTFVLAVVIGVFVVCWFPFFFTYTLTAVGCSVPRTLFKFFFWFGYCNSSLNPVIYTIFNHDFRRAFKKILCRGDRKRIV

Compound: C[N+]1([O-])CCN(C2=Nc3cc(Cl)ccc3Nc3ccccc32)CC1 [CNO, clozapine-N-oxide]
- inhibition (AChE): < 20%
- inhibition (PDE4D2): < 20%
- competitive inhibition of ligand binding (D2 dopamine receptor): over 50%
- brain concentration by linear extrapolation ([1]; 10 mg/kg CNO): ≤ 70 nM
- free (CSF) level by linear extrapolation ([1]; 10 mg/kg CNO): ≤ 30 nM
- mean CNO concentration as % of the CLZ concentration in plasma ([1]; 15 min after i.p. 1 mg/kg CLZ): approximately 1.1%
- mean concentration in CSF [1, 5]: 11.2 nM
- mean concentration in CSF [1, 6]: 10.8 nM
- free level (CSF) [1, 7]: ~4.05 nM
- detection at all other time points and in the other sample types ([1]; after i.p. 1 mg/kg CLZ, other than plasma at 15 min): no CNO was detectable
- mean concentration in brain [1, 5]: 23.8 nM
- mean concentration in brain [1, 6]: 18.5 nM
- mean concentration in brain [1, 7]: could not be detected
- behavioural changes in 5-CSRTT parameters (C57BL/6 J mice; CNO 3.5 or 10 mg/kg i.p., 10 min before test, vs vehicle): did not produce any significant behavioural changes in most 5-CSRTT parameters
- number of perseverative responses (C57BL/6 J mice; CNO highest dose (10 mg/kg) i.p.): not at the highest dose
- number of perseverative responses (C57BL/6 J mice; CNO intermediate dose (3.5 mg/kg) i.p., p = 0.0142): modest increase
- competitive inhibition of ligand binding (M3 muscarinic receptor): over 50%
- competitive inhibition of ligand binding (M1 muscarinic receptor): over 50%
- competitive inhibition of ligand binding [2]: over 50%
- competitive inhibition of ligand binding (α2A adrenoreceptor): over 50%
- times less potent than CLZ at hM4Di (hM4Di; ratio of EC50 values): ~20 times
- times less potent than Cmpd-21 at hM4Di (hM4Di; ratio of EC50 values): approximately 2.7 times
- pEC50 (hM4Di; reduction of Ca2+ oscillation frequency, hM4Di-transduced rat primary neurons, Hill fit, read-out: half maximal effective concentration (EC50) at hM4Di): 8.09
- inhibition (COX1): < 20%
- competitive inhibition of ligand binding ([3]; 10 μM compound): over 50%
- pKi ([3]; bound stated in discussion): > 7.00
- pEC50 [4]: 5.20
- competitive inhibition of ligand binding (α1A adrenoreceptor): over 50%
